Laboratory results as given in BindingDB's records for doi:10.1111/j.1600-0773.1996.tb00261.x (Uppsala University, 1996).
pKi: −log10 of the molar value. Where a SMILES comes first, the peptide text is derived from it. [ ]: non-standard residue; d: D form. Met(O2) = CS(=O)(=O)CC[C@H](N)C(=O)O

Target: Melanocortin receptor 4 (Homo sapiens, UniProt P32245)
Sequence (P32245 whole entry): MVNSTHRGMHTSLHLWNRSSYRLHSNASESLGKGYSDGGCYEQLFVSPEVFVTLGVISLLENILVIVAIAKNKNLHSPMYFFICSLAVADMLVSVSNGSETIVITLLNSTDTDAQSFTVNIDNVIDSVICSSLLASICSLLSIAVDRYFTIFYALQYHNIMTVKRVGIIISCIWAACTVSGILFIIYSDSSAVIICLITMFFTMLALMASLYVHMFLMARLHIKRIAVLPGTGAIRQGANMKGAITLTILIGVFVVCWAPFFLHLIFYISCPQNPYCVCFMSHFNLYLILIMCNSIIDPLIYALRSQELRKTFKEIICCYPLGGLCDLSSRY

Compound | pKi
H-SMEVRGW-OH [delta MSH] | < 5.00
H-YVMGHFRWDRFGRRNGSSSSGVGGAAQ-OH [Gamma3-MSH] | < 5.00
CS(=O)(=O)CC[C@H](N)C(=O)N[C@@H](CCC(=O)O)C(=O)N[C@@H](Cc1c[nH]cn1)C(=O)N[C@@H](Cc1ccccc1)C(=O)N[C@H](CCCCN)C(=O)N[C@@H](Cc1ccccc1)C(=O)O [CAS_50913-82-1] (H-[Met(O2)]EHF[dK]F-OH) | < 5.00

The remaining lines, values ahead:

pKi | Compound
< 5.00 | CSCC[C@H](N)C(=O)N[C@@H](CCC(=O)O)C(=O)N[C@@H](Cc1cnc[nH]1)C(=O)N[C@@H](Cc1ccccc1)C(=O)N[C@@H](CCCNC(=N)N)C(=O)N[C@@H](Cc1c[nH]c2ccccc12)C(=O)NCC(N)=O [NSC_123787]
6.16 | H-SYSMEHFRWGKPVGKKRRPVKVYPNGAEDESAEAFPLEF-OH [ACTH]
